Results on four compounds are retold here after patent US10780067B2, “Endoxifen for local transdermal therapy to the breast” (Northwestern University, priority 2016, dated 2020).

In general, TGI refers to the reduction of tumour growth relative to the control group.

Series [1] in a line: Plasma, breast adipose tissue and NAF concentrations of tamoxifen and its metabolites (LC-MS/MS), presurgical trial. Type of series: in vivo, human. The conditions noted are these: in vivo. An excerpt:
All participants provided informed consent. Baseline assessments included a history and physical, explanation of gel application, completion of the Breast Cancer Prevention Trial Eight Symptom Scale (BESS) questionnaire, collection of a venous blood sample, and collection of nipple aspirate fluid (NAF) from NAF yielders. […] Treatment began within 5 days post-randomization and ended on the day prior to surgical resection. Participants were instructed to apply the gel to the entire skin envelope of each breast each morning, after a shower. Duration of therapy was 6-10 weeks. Compliance was assessed through participant diaries, counts of returned pills and of returned gel canisters. Participants who took at least 80% of the prescribed dose were considered compliant.
Assessments similar to those performed at baseline were repeated on the day prior to, or on the morning of surgery. During surgery, breast adipose tissue from the surgical sample was snap frozen and stored at −80° C. for measurement of tamoxifen and metabolites. The samples were obtained from a location adjacent to the DCIS lesion to provide uniformity between participants undergoing breast conservation and mastectomy. The paraffin block of the core and excision samples were acquired by the recruiting institution and 10 sections from each specimen were submitted to the NU Pathology Core Facility. The sections were cut in batches (with pre- and post-treatment samples in the same batch), shipped cold, and processed for immunohistochemistry within four weeks.
(Z)-tamoxifen, (Z)-NDT, (E) and (Z)-4-OHT, and (Z)-endoxifen were measured by liquid chromatography-tandem mass spectrometry with a turbo ion spray interface operating in positive mode (API 3000; AB SCIEX, Foster City, Calif.). […] For analysis of NAF, samples were collected in a capillary tube and diluted with 200 μL of phosphate buffered saline; 100 μL of the diluted NAF sample was used for analysis. Breast adipose tissue samples, 25 mg, were minced and treated with 125 μL of […] and extracted as described above.
Retention times for (Z)-tamoxifen, (Z)-NDT, (Z)-4-OHT, (E)-4-OHT and (Z)-endoxifen were 7.3, 6.8, 5.1, 4.7 and 4.5 min, respectively. […] In three participants, matched samples were not available: breast adipose tissue was not collected in two, and the plasma sample was missing in one.
Since the fraction of E and Z isoforms of 4-OHT was of particular interest, we used an additional validated method to study plasma concentrations of these metabolites in a different laboratory (Eurofins Medinet, Chantilly, Va.): Plasma from blood samples collected in lithium-heparin tubes was frozen at −20° C., shipped in batches on dry ice to them Eurofins Medinet central laboratory; LC-MS/MS was used for the simultaneous determination of (E) 4-OHT and (Z) 4-OHT, with a lower limit of quantitation (LOQ) of 10 pg/mL and upper LOQ of 10,000 pg/mL. Eurofins Medinet developed and validated them method for BHR Pharma, in accordance with the FDA Guidance on Bioanalytical Method Validation.

Another series concerns MCF-7 xenograft. As to conditions: dose of 2-8 mg/kg; cited from earlier work.
For series [2] the following is noted: alcoholic solution of ENX 0.2 mg/mL with 0.5% oleic acid; cited from earlier work.
The conditions of series [3]: oral dose of 160 mg daily; cited from earlier work.
The target of the next series is ERβ (Homo sapiens, UniProt Q92731). The conditions noted are these: cited from earlier work.
Series [4] concerns MCF7 xenograft. The conditions noted are these: simulation using human PK; cited from earlier work.
The next series deals with T1, ERα (Homo sapiens, UniProt P03372).
T1 sequence (P03372 1-595): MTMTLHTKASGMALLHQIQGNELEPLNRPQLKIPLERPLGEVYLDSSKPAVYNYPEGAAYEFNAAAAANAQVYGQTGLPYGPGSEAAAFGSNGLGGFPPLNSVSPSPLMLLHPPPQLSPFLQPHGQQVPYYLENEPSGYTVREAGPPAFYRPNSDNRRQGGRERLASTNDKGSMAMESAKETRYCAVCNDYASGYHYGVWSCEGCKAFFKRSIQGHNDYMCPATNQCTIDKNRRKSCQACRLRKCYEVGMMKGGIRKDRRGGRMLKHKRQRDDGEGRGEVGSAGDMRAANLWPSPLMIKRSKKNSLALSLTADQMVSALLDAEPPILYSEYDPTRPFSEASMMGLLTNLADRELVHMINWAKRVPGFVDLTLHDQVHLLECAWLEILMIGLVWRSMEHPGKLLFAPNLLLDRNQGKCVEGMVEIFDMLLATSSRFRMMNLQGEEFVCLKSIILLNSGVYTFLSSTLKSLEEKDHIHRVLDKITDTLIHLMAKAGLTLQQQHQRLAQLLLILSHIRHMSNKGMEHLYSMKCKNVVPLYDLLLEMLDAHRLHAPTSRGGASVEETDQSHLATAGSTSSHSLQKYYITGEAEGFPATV
As to conditions: cited from earlier work.

In series [5] the test system is MCF7 xenograft. The conditions noted are these: MCF7 xenograft bearing mice, cited from earlier work.
The next series can be described thus: clinical. As to conditions: female, human, in vivo.
The conditions of series [6]: female, human, in vivo, 72 h.
Description: (§1) Nonpregnant women scheduled for mastectomy to prevent or treat breast cancer were recruited through the Lynn Sage Comprehensive Breast Center of Northwestern Medicine. All participants were randomized to patch application to one surgical breast (per participant) or the abdominal skin. The diclofenac patch (Flector® patch, 10 cm×14 cm) is a semi-occlusive, bioadhesive patch containing 129.7 mg of diclofenac acid. After baseline evaluation, the participants were instructed on site of patch application and to replace patch every 12 h over 72 h prior to surgery.
(§2) The breast group wore the patch over the upper outer breast, with the lower inner corner of the patch at the level of the nipple (FIG. 3b). The abdominal group wore the patch on the lower abdomen on the side opposite the planned mastectomy (FIG. 3a). Participants were assessed for baseline signs/symptoms and then by telephone the second day of the treatment and on the day of surgery. All adverse events were coded using the NCI Common Terminology Criteria for Adverse Events version 4.0.
(§3) On the day of surgery, the transdermal patch was removed in the operating room prior to anesthesia and 30 mL venous blood was collected with anticoagulant K2EDTA (BD Vacutainer®, BD Hemogard™ product no. 366643). Tissue samples from the mastectomy specimen were obtained from eight predetermined locations of one breast per participant (FIG. 3b), four central/periareolar and four peripheral samples 5 cm away, at 12, 3, 6, and 9 O'clock. Each tissue sample was weighed and snap-frozen in liquid nitrogen and kept in −80° C. until analysis.
(§4) Formalin-fixed, paraffin-embedded (FFPE) samples were taken from locations adjacent to the drug assay samples, for histological evaluation of tissue composition, and were available from all subjects.
(§5) The concentrations of all the drugs used in rats and humans were determined by liquid chromatography-tandem mass spectroscopy (API 3000; AB SCIEX, Foster City, Calif., USA). […] The mobile phase was A: 0.1% formic acid in water (v/v) and B: 0.1% formic acid in acetonitrile (v/v). […] The lowest limits of quantification (LLOQ) were as follow: tamoxifen and N-desmethyl tamoxifen (NDT) (plasma 10 ng/mL; tissue 40 ng/g); 4-OHT and endoxifen (plasma 0.5 ng/mL; tissue 2 ng/g); telapristone and N-desmethyl telapristone (d-telapristone) (plasma 1 ng/mL; tissue 1.5 ng/g); and diclofenac (plasma 0.5 ng/mL; tissue 2 ng/g).
(§6) The medians and IQR's were reported for diclofenac concentrations by breast region and patch groups (Table 9). To compare breast concentrations by site of patch application, we replaced non-detectable values with “zero” and considered the median concentration from eight samples as the representative breast concentration per individual for statistical purposes. The Wilcoxon rank-sum test was used to assess median concentration differences between patch groups, among regions of the breast, and by menopausal status within each treatment group.
(§7) Diclofenac was determined by LC-MS/MS (API 3000; AB SCIEX, Foster City, Calif.).

Chain of ERβ (Q92731 whole entry): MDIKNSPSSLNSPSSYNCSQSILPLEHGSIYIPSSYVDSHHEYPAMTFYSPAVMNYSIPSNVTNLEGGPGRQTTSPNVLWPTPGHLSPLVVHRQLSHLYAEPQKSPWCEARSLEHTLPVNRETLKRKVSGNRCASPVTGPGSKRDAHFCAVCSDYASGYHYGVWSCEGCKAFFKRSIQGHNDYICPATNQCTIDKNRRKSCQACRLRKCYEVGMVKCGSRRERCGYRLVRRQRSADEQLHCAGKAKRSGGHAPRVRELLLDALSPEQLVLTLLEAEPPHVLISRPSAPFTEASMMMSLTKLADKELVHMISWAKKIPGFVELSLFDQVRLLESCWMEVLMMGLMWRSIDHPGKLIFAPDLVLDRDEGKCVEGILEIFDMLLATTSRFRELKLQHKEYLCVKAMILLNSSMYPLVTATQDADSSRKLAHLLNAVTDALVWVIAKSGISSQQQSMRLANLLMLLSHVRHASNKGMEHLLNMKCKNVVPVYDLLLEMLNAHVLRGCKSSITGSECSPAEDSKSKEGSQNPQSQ
Description for clinical: as §1, §2, §3, §4, §5, §6, §7

4-hydroxytamoxifen [4-OHT gel]: in series [1], the “NAF concentration of NDT, individual participants” value is reported as “undetectable”; the “NAF concentration of endoxifen” value is given as “undetectable”; the “NAF concentration of tamoxifen, individual participants” value is reported as “undetectable”; the “participants with 4-OHT detectable in breast tissue” value was 9 of 10. Also, in series [1], the “participants with 4-OHT detectable in plasma” value is recorded as 5. Besides, the “breast adipose tissue concentrations of (Z) 4-OHT (discussion)” value in series [1] (po) was “over 5 ng/mg”.

As to `CC/C(=C(\c1ccc(O)cc1)c1ccc(OCCNC)cc1)c1ccccc1.O=C(O)CC(O)(CC(=O)O)C(=O)O` [ENX citrate], the “efficacy against MCF-7 xenograft model” value in the series with MCF-7 xenograft is “shows efficacy”.

As for `CC/C(=C(\c1ccc(O)cc1)c1ccc(OCCNC)cc1)c1ccccc1` [Endoxifen, N-desmethyl-4-hydroxytamoxifen], in series [2], the “in vitro human skin penetration” value is “penetrates human skin efficiently”. In addition, the MTT result in [3] was “not reached”. Also, the “binding affinity for ERβ relative to TAM” value on ERβ is 56 fold. In addition, in the series with MCF7 xenograft [4], the “TGI at day 21, 0.5 mg/day oral” value was 67%; the “TGI at day 21, 1 mg/day oral” value is reported as 87%; the “TGI at day 21, 4 mg/day oral” value is 97%. For the same compound, the “binding affinity for ERα relative to TAM” value at ERα is on record as 25 fold. In addition, in the series with MCF7 xenograft [5], the “Cstasis (plasma ENX showing 100% TGI)” value is listed as 53 nM. Moreover, the “KC50 of plasma ENX” value in the series with MCF7 xenograft [5] (tumor growth inhibition, oral ENX) is given as 14 nM.

Turning to `O=C(O)Cc1ccccc1Nc1c(Cl)cccc1Cl` [diclofenac], the concentration at 72 h in the series “clinical” (diclofenac breast concentration, abdominal patch, All locations) worked out at 0.13 ng/g; in “clinical” (diclofenac breast concentration, abdominal patch, sampling location 1), 0 ng/g; in the series “clinical” (diclofenac breast concentration, abdominal patch, sampling location 2), 0.18 ng/g; in the series “clinical” (diclofenac breast concentration, abdominal patch, sampling location 3), 0.2 ng/g; in “clinical” (diclofenac breast concentration, abdominal patch, sampling location 4), 0.19 ng/g; in “clinical” (diclofenac breast concentration, abdominal patch, sampling location 5), 0.11 ng/g. Besides, the concentration at 72 h in “clinical” (diclofenac breast concentration, abdominal patch, sampling location 6) stood at 0.04 ng/g; in the series “clinical” (diclofenac breast concentration, abdominal patch, sampling location 7), 0.14 ng/g; in the series “clinical” (diclofenac breast concentration, abdominal patch, sampling location 8), 0.08 ng/g; in “clinical” (diclofenac breast concentration, breast patch, All locations), 0.77 ng/g; in “clinical” (diclofenac breast concentration, breast patch, sampling location 1), 0.63 ng/g; in “clinical” (diclofenac breast concentration, breast patch, sampling location 2), 0.64 ng/g. The concentration at 72 h in the series “clinical” (diclofenac breast concentration, breast patch, sampling location 3) was found to be 0.48 ng/g; in the series “clinical” (diclofenac breast concentration, breast patch, sampling location 4), 1.64 ng/g; in the series “clinical” (diclofenac breast concentration, breast patch, sampling location 5), 1.98 ng/g; in “clinical” (diclofenac breast concentration, breast patch, sampling location 6), 0.31 ng/g; in the series “clinical” (diclofenac breast concentration, breast patch, sampling location 7), 1.12 ng/g; in “clinical” (diclofenac breast concentration, breast patch, sampling location 8) it was 0.58 ng/g. The concentration at 72 h was 1.06 ng/mL in “clinical” (diclofenac plasma concentration, abdominal patch); 1.02 ng/mL in “clinical” (diclofenac plasma concentration, breast patch); 8.71 ng/g in the series “clinical” (median breast concentration of diclofenac with IQR, fatty samples); 0.19 ng/g in “clinical” (median breast concentration of diclofenac with IQR, fibrous samples); 0.52 ng/g in the series “clinical” (median breast concentration of diclofenac with IQR, mixed samples); 0.21 ng/g in “clinical” (median diclofenac breast concentration, abdominal group, medium-sized breasts). Moreover, the concentration at 72 h in “clinical” (median diclofenac breast concentration, abdominal group, small breasts) is 0.6 ng/g; in the series “clinical” (median diclofenac breast concentration, breast group, medium-sized breasts), 1.31 ng/g; in “clinical” (median diclofenac breast concentration, breast group, small breasts), 1.12 ng/g; in the series “clinical” (median diclofenac concentration, central locations (1 through 4), abdominal group), 0.85 ng/g; in the series “clinical” (median diclofenac concentration, central locations (1 through 4), breast group), 4.91 ng/g; in “clinical” (median diclofenac concentration, peripheral locations (5 through 8), abdominal group) it was 0.75 ng/g. Further, the concentration at 72 h is 9.92 ng/g in the series “clinical” (median diclofenac concentration, peripheral locations (5 through 8), breast group) and 1.2 to 4.8 ng/g in “clinical” (range of diclofenac concentrations in tissue samples of three women, abdominal group). In addition, the “diclofenac breast concentration, abdominal patch, All locations” value in series [6] is recorded as 0.13 (0.00, 0.37) ng/g tissue. For the same compound, in series [6], the “diclofenac breast concentration, abdominal patch, sampling location 6” value was 0.04 (0.00, 0.48) ng/g tissue. Further, the “diclofenac breast concentration, breast patch, All locations” value in series [6] is listed as 0.77 (0.23, 2.97) ng/g tissue. For the same compound, the “diclofenac breast concentration, breast patch, sampling location 6” value in series [6] is reported as 0.31 (0.00, 1.23) ng/g tissue. In addition, the “diclofenac plasma concentration, abdominal patch” value in [6] is given as 1.06 (0.81, 1.88) ng/mL. Further, the “diclofenac plasma concentration, breast patch” value in [6] is recorded as 1.02 (0.71, 1.78) ng/mL. Moreover, in series [6], the “tissue samples with detectable diclofenac, abdominal group” value was 58%. In addition, the “tissue samples with detectable diclofenac, breast group” value in series [6] was determined as 79%.
